The numbers were not newly measured in US20030099708A1, “Printing or dispensing a suspension such as three-dimensional printing of dosage forms” (Therics, Inc, priority 2001, published 2003), which cites them from elsewhere.

For the data set the following is noted: statement in words, no test described.

Consider `CC[C@@]1(O)C(=O)OCc2c1cc1n(c2=O)Cc2cc3ccccc3nc2-1` [camptothecin], for which the solubility in water result is “substantially insoluble”.
